The numbers were not newly measured in patent publication US9855260B2, “Quinolinone derivatives” (GlaxoSmithKline LLC, priority 2011, dated 2018), which cites them from elsewhere.

This data set has as its system ob/ob and db/db mice. The conditions noted are these: 8 day administration.

Consider `NC(=O)c1ncn([C@@H]2O[C@H](CO)[C@@H](O)[C@H]2O)c1N` [AICAR, 5-aminoimidazole-4-carboxamide-1(beta)-D-ribofuranoside], for which the reduces blood glucose was 35%.
